The source made the active and inactive calls. The rule behind the calls is not given here.
Columns and labels:
[1] = test system: Nicotiana tabacum; assay: (§1) Induction of systemic resistance (ISR) activity in Nicotiana tabacum (tobacco) seedlings against pectobacterium carotovorum subsp. carotovorum SCC1 assessed as decrease in disease symptoms on leaves applied to roots prior to leaf infection with SCC1 measured at 3 days after pathogen challenge; format: functional, organism-based
[2] = test system: Nicotiana tabacum; assay: as §1, with “leaves at 12 mM” for “leaves”; format: functional, organism-based

SMILES | Activity [1] | Activity [2]
CCCCOC(=O)[C@@H]1CCC(=O)N1 | Active | 
CCCCOC(=O)C1CCC(=O)N1 (configuration not stated) |  | Active
